# In PubChem BioAssay (NCI):
#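 Step 1: Grow cells in 96-well plates. Step 2: Expose to compound for 48 hours at 5 concentrations. Step 3: Interpolate endpoints linearly; if unreached, use highest concentration. The concentration for 50% growth inhibition is given as GI50. TGI marks complete inhibition of growth.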
# System: NCI-H226 lung
# Assay: inhibition of tumour cell growth, NCI panel, 48 h
SMILES,GI50,TGI
O=C(Nc1cc(C(F)(F)F)ccc1Cl)c1cccc(NC2=C(Cl)C(=O)N(Cc3ccccc3)C2=O)c1,17.6 µM,> 100 µM
CCOC(=O)/C=C/c1ccc(C#Cc2ccccc2)cc1,> 100 µM,> 100 µM
O=[P@@]1(c2ccccc2)O[C@H](COCc2ccccc2)[C@@H](OCc2ccccc2)[C@H](OCc2ccccc2)[C@H]1NCc1ccccc1,3.43 µM,85.2 µM
CSc1ccccc1C#C/C=C\C#Cc1ccccc1N,13.4 µM,52 µM
COc1ccc(C(O)(CCC(C)C)C(CN2CCOCC2)c2ccc(Cl)cc2)cc1 (configuration not stated),13.2 µM,32.1 µM
O=C1c2cc3c(cc2-c2c1c1cc(Cl)c(Cl)cc1c(=O)n2C[C@H](O)CO)OCO3,< 0.01 µM,0.0248 µM
COc1ccc(/C(=C\C=C(C#N)C#N)Sc2nc3ccccc3s2)cc1,11.2 µM,40.9 µM
COc1cc(/C=C\c2cc(OC)c(OC)c(OC)c2)cc(N/C=C\C(=O)c2cc(OC)c(OC)c(OC)c2)c1OC,5.46 µM,> 100 µM
Clc1nc(Cl)nc(Nc2cccc3ccccc23)n1,> 100 µM,> 100 µM
Cc1cc2cc3c(=O)[nH]c(=O)[nH]c3nc2cc1C,–,> 100 µM
O=C(O)c1ccc(C(=O)O)c2c(C(=O)O)ccc(C(=O)O)c12,–,> 100 µM
O=C(Nc1ccc(Cl)c(C(F)(F)F)c1)c1ccc(NC2=C(Cl)C(=O)N(Cc3ccccc3)C2=O)cc1,23.1 µM,53 µM
COC(=O)c1ccc(-c2c(C#N)[n+](=O)c3cc(Cl)c(Cl)cc3n2[O-])cc1,25.7 µM,70.6 µM
Cc1nc2cc(Nc3nc(Nc4ccc(F)cc4)nc(-c4cccs4)n3)ccc2n1Cc1ccccc1,8.23 µM,36.5 µM
Oc1ccc2ccccc2c1N=Nc1ccc(Br)cc1,–,> 100 µM
CC(C)=CCc1cc2c(cc1O)OC[C@H]1c3cc4c(cc3O[C@@H]21)OCO4,–,69.7 µM
Cn1cc(-c2csc(-c3c[nH]c4ccc(Br)cc34)n2)c2cnccc21,2.34 µM,6 µM
CCOC(=O)c1c(-c2ccc(OC)cc2)c(C#N)c2c(C#N)c(N)nn2c1N,3.62 µM,> 100 µM

# System: NCI-H23 lung
# Assay: inhibition of tumour cell growth, NCI panel, 48 h
SMILES,GI50,TGI
O=[N+]([O-])c1ccc(CI)cc1,3.32 µM,12.4 µM
COC(=O)c1cc2c(s1)-c1nccc3c1c(nc1ccccc13)C2=O,> 100 µM,> 100 µM
COc1ccc(-c2cc(/C=C/C(=O)c3ccc(OC)c(OC)c3)[nH]n2)cc1,2.47 µM,6.33 µM
Oc1ccc(Nc2c3ccccc3nc3occ(Cl)c23)cc1,3.26 µM,> 100 µM
CCOC(=O)/C=C/c1ccc(C#Cc2ccccc2)cc1,95 µM,> 100 µM
O=[P@@]1(c2ccccc2)O[C@H](COCc2ccccc2)[C@@H](OCc2ccccc2)[C@H](OCc2ccccc2)[C@H]1NCc1ccccc1,3.66 µM,> 100 µM
CSc1ccccc1C#C/C=C\C#Cc1ccccc1N,13.1 µM,37.3 µM
COc1ccc(C(O)(CCC(C)C)C(CN2CCOCC2)c2ccc(Cl)cc2)cc1 (configuration not stated),9.85 µM,30.3 µM
O=C1c2cc3c(cc2-c2c1c1cc(Cl)c(Cl)cc1c(=O)n2C[C@H](O)CO)OCO3,< 0.01 µM,0.0448 µM
COc1ccc(/C(=C\C=C(C#N)C#N)Sc2nc3ccccc3s2)cc1,9.46 µM,20 µM
COc1cc(/C=C\c2cc(OC)c(OC)c(OC)c2)cc(N/C=C\C(=O)c2cc(OC)c(OC)c(OC)c2)c1OC,4.22 µM,> 100 µM
Clc1nc(Cl)nc(Nc2cccc3ccccc23)n1,> 100 µM,> 100 µM
Cc1cc2cc3c(=O)[nH]c(=O)[nH]c3nc2cc1C,–,> 100 µM
CN(C)c1ncnc2c1ncn2CCn1cnc2c(N(C)C)ncnc21,–,> 100 µM
O=C(O)c1ccc(C(=O)O)c2c(C(=O)O)ccc(C(=O)O)c12,–,> 100 µM
S=c1[nH]c2c(Cl)c(Cl)c(Cl)c(Cl)c2[nH]1,–,> 100 µM
Cc1ccc(Nc2oc(-c3ccccc3)nc2[P+](c2ccccc2)(c2ccccc2)c2ccccc2)cc1,0.458 µM,2.08 µM
COC(=O)c1ccc(-c2c(C#N)[n+](=O)c3cc(Cl)c(Cl)cc3n2[O-])cc1,11.7 µM,29.3 µM
C#Cc1nc(Nc2cc(C)[nH]n2)c2ccccc2n1,0.553 µM,3.59 µM
Cc1nc2cc(Nc3nc(Nc4ccc(F)cc4)nc(-c4cccs4)n3)ccc2n1Cc1ccccc1,5.87 µM,32.7 µM
Oc1ccc2ccccc2c1N=Nc1ccc(Br)cc1,–,> 100 µM
CC(C)=CCc1cc2c(cc1O)OC[C@H]1c3cc4c(cc3O[C@@H]21)OCO4,–,96.3 µM
Cn1cc(-c2csc(-c3c[nH]c4ccc(Br)cc34)n2)c2cnccc21,2.73 µM,8.79 µM
CCOC(=O)c1c(-c2ccc(OC)cc2)c(C#N)c2c(C#N)c(N)nn2c1N,4.69 µM,> 100 µM
COc1ccc(Cn2c(N)c(S(=O)(=O)c3ccc(Cl)cc3)c3nc(C#N)c(C#N)nc32)cc1,17 µM,> 50 µM

# System: SK-MEL-2 melanoma
# Assay: inhibition of tumour cell growth, NCI panel, 48 h
SMILES,GI50,TGI
COC(=O)c1cc2c(s1)-c1nccc3c1c(nc1ccccc13)C2=O,> 100 µM,> 100 µM
Oc1ccc(Nc2c3ccccc3nc3occ(Cl)c23)cc1,2.62 µM,7.26 µM
O=C(Nc1cc(C(F)(F)F)ccc1Cl)c1cccc(NC2=C(Cl)C(=O)N(Cc3ccccc3)C2=O)c1,30.8 µM,> 100 µM
CCOC(=O)/C=C/c1ccc(C#Cc2ccccc2)cc1,> 100 µM,> 100 µM
O=[P@@]1(c2ccccc2)O[C@H](COCc2ccccc2)[C@@H](OCc2ccccc2)[C@H](OCc2ccccc2)[C@H]1NCc1ccccc1,3.73 µM,> 100 µM
CSc1ccccc1C#C/C=C\C#Cc1ccccc1N,6.13 µM,> 100 µM
O=C1c2cc3c(cc2-c2c1c1cc(Cl)c(Cl)cc1c(=O)n2C[C@H](O)CO)OCO3,0.0488 µM,0.374 µM
COc1ccc(/C(=C\C=C(C#N)C#N)Sc2nc3ccccc3s2)cc1,34.1 µM,> 50 µM
COc1cc(/C=C\c2cc(OC)c(OC)c(OC)c2)cc(N/C=C\C(=O)c2cc(OC)c(OC)c(OC)c2)c1OC,4.54 µM,> 100 µM
Clc1nc(Cl)nc(Nc2cccc3ccccc23)n1,80.7 µM,> 100 µM
Cc1cc2cc3c(=O)[nH]c(=O)[nH]c3nc2cc1C,–,> 100 µM
CN(C)c1ncnc2c1ncn2CCn1cnc2c(N(C)C)ncnc21,–,> 100 µM
O=C(O)c1ccc(C(=O)O)c2c(C(=O)O)ccc(C(=O)O)c12,–,> 100 µM
Cc1cc(N(CCCNc2ccnc3cc(Cl)ccc23)Cc2ccc3c(c2)OCO3)nc(N2CCOCC2)n1,0.207 µM,0.457 µM
Cc1ccc(Nc2oc(-c3ccccc3)nc2[P+](c2ccccc2)(c2ccccc2)c2ccccc2)cc1,0.625 µM,1.85 µM
O=C(Nc1ccc(Cl)c(C(F)(F)F)c1)c1ccc(NC2=C(Cl)C(=O)N(Cc3ccccc3)C2=O)cc1,13.8 µM,38.7 µM
Cc1nc2cc(Nc3nc(Nc4ccc(F)cc4)nc(-c4cccs4)n3)ccc2n1Cc1ccccc1,2.36 µM,5.44 µM
Oc1ccc2ccccc2c1N=Nc1ccc(Br)cc1,–,> 100 µM
Cn1cc(-c2csc(-c3c[nH]c4ccc(Br)cc34)n2)c2cnccc21,2.58 µM,6.35 µM
CCOC(=O)c1c(-c2ccc(OC)cc2)c(C#N)c2c(C#N)c(N)nn2c1N,3.35 µM,26.5 µM
COc1ccc(Cn2c(N)c(S(=O)(=O)c3ccc(Cl)cc3)c3nc(C#N)c(C#N)nc32)cc1,29.8 µM,> 50 µM

# System: SW-620 colon
# Assay: inhibition of tumour cell growth, NCI panel, 48 h
SMILES,GI50,TGI
O=[N+]([O-])c1ccc(CI)cc1,0.803 µM,3.22 µM
COC(=O)c1cc2c(s1)-c1nccc3c1c(nc1ccccc13)C2=O,61.7 µM,> 100 µM
COc1ccc(-c2cc(/C=C/C(=O)c3ccc(OC)c(OC)c3)[nH]n2)cc1,1.35 µM,3.59 µM
Oc1ccc(Nc2c3ccccc3nc3occ(Cl)c23)cc1,4.71 µM,> 100 µM
O=C(Nc1cc(C(F)(F)F)ccc1Cl)c1cccc(NC2=C(Cl)C(=O)N(Cc3ccccc3)C2=O)c1,52.7 µM,> 100 µM
CCOC(=O)/C=C/c1ccc(C#Cc2ccccc2)cc1,> 100 µM,> 100 µM
O=[P@@]1(c2ccccc2)O[C@H](COCc2ccccc2)[C@@H](OCc2ccccc2)[C@H](OCc2ccccc2)[C@H]1NCc1ccccc1,3.52 µM,> 100 µM
CSc1ccccc1C#C/C=C\C#Cc1ccccc1N,3.72 µM,14.8 µM
COc1ccc(C(O)(CCC(C)C)C(CN2CCOCC2)c2ccc(Cl)cc2)cc1 (configuration not stated),11.4 µM,26.8 µM
O=C1c2cc3c(cc2-c2c1c1cc(Cl)c(Cl)cc1c(=O)n2C[C@H](O)CO)OCO3,< 0.01 µM,2.08 µM
COc1ccc(/C(=C\C=C(C#N)C#N)Sc2nc3ccccc3s2)cc1,1.77 µM,> 50 µM
COc1cc(/C=C\c2cc(OC)c(OC)c(OC)c2)cc(N/C=C\C(=O)c2cc(OC)c(OC)c(OC)c2)c1OC,4.12 µM,> 100 µM
Clc1nc(Cl)nc(Nc2cccc3ccccc23)n1,94.7 µM,> 100 µM
Cc1cc2cc3c(=O)[nH]c(=O)[nH]c3nc2cc1C,–,> 100 µM
CN(C)c1ncnc2c1ncn2CCn1cnc2c(N(C)C)ncnc21,–,> 100 µM
O=C(O)c1ccc(C(=O)O)c2c(C(=O)O)ccc(C(=O)O)c12,–,> 100 µM
S=c1[nH]c2c(Cl)c(Cl)c(Cl)c(Cl)c2[nH]1,–,49.2 µM
Cc1cc(N(CCCNc2ccnc3cc(Cl)ccc23)Cc2ccc3c(c2)OCO3)nc(N2CCOCC2)n1,0.306 µM,38.2 µM
Cc1ccc(Nc2oc(-c3ccccc3)nc2[P+](c2ccccc2)(c2ccccc2)c2ccccc2)cc1,0.675 µM,2.05 µM
COC(=O)c1ccc(-c2c(C#N)[n+](=O)c3cc(Cl)c(Cl)cc3n2[O-])cc1,17.8 µM,45.4 µM
C#Cc1nc(Nc2cc(C)[nH]n2)c2ccccc2n1,0.327 µM,1.3 µM
Cc1nc2cc(Nc3nc(Nc4ccc(F)cc4)nc(-c4cccs4)n3)ccc2n1Cc1ccccc1,4.02 µM,38.8 µM
Oc1ccc2ccccc2c1N=Nc1ccc(Br)cc1,–,> 100 µM
CC(C)=CCc1cc2c(cc1O)OC[C@H]1c3cc4c(cc3O[C@@H]21)OCO4,–,> 100 µM
Cn1cc(-c2csc(-c3c[nH]c4ccc(Br)cc34)n2)c2cnccc21,1.81 µM,3.46 µM
CCOC(=O)c1c(-c2ccc(OC)cc2)c(C#N)c2c(C#N)c(N)nn2c1N,5.62 µM,> 100 µM
COc1ccc(Cn2c(N)c(S(=O)(=O)c3ccc(Cl)cc3)c3nc(C#N)c(C#N)nc32)cc1,> 50 µM,> 50 µM
